The text below walks through data of publication PMC5218480 (PLoS ONE, 2017).

SMILES strings stand for the structures.

In this test the test system is MV-4-11 cells. As to the kind of experiment: Gene expression microarray analysis (Affymetrix PrimeView) and GSEA. In kind it is cell-based, human. More on the design: RFU PODN (11730768_x_at) / Fold change /veh PODN (11730768_x_at) / RFU LINC00158 (11744669_a_at) / Fold change /veh LINC00158 (11744669_a_at) / RFU DUSP10 (11751237_a_at) / Fold change /veh DUSP10 (11751237_a_at) / RFU ID3 (11757404_x_at) / Fold change /veh ID3 (11757404_x_at) / RFU PLEKHG5 (11737974_s_at) / Fold change /veh PLEKHG5 (11737974_s_at) / RFU LRRC4B (11730491_at) / Fold change /veh LRRC4B (11730491_at) / RFU GIMAP4 (11747438_a_at) / Fold change /veh GIMAP4 (11747438_a_at) / RFU KRT8 (11758183_x_at) / Fold change /veh KRT8 (11758183_x_at) / RFU CNN1 (11734310_a_at) / Fold change /veh CNN1 (11734310_a_at) / RFU VPS37D (11726825_at) / Fold change /veh VPS37D (11726825_at) / RFU C10orf10 (11716522_x_at) / Fold change /veh C10orf10 (11716522_x_at) / RFU KIR2DL2 /// KIR2DL4 /// KIR2DL5A /// KIR2DL5B /// KIR2DS1 /// KIR2DS2 /// KIR2DS3 /// KIR2DS4 /// KIR3DL3 /// KIR3DL3 /// KIR3DS1 (11738374_at) / Fold change /veh KIR2DL2 /// KIR2DL4 /// KIR2DL5A /// KIR2DL5B /// KIR2DS1 /// KIR2DS2 /// KIR2DS3 /// KIR2DS4 /// KIR3DL3 /// KIR3DL3 /// KIR3DS1 (11738374_at) / RFU C1QL1 (11718748_at) / Fold change /veh C1QL1 (11718748_at) / RFU TMPRSS4 (11747572_a_at) / Fold change /veh TMPRSS4 (11747572_a_at) / RFU HAMP (11756126_x_at) / Fold change /veh HAMP (11756126_x_at) / RFU RNFT2 (11725882_a_at) / Fold change /veh RNFT2 (11725882_a_at) / RFU NR4A2 (11747474_a_at) / Fold change /veh NR4A2 (11747474_a_at) / RFU ABCC12 (11746883_a_at) / Fold change /veh ABCC12 (11746883_a_at) / RFU TMEM136 (11760407_x_at) / Fold change /veh TMEM136 (11760407_x_at) / RFU CLDN22 /// WWC2 (11732394_at) / Fold change /veh CLDN22 /// WWC2 (11732394_at) / RFU HLA-DPB1 (11760878_x_at) / Fold change /veh HLA-DPB1 (11760878_x_at) / RFU SPINT1 (11716480_a_at) / Fold change /veh SPINT1 (11716480_a_at) / RFU GAP43 (11754022_s_at) / Fold change /veh GAP43 (11754022_s_at) / RFU A4GNT (11735810_at) / Fold change /veh A4GNT (11735810_at) / RFU PRB3 (11715151_x_at) / Fold change /veh PRB3 (11715151_x_at) / RFU TUBB4B (11761932_at) / Fold change /veh TUBB4B (11761932_at) / RFU CAPN14 (11732068_a_at) / Fold change /veh CAPN14 (11732068_a_at) / RFU TMCC2 (11721928_a_at) / Fold change /veh TMCC2 (11721928_a_at) / RFU IRGQ (11745062_a_at) / Fold change /veh IRGQ (11745062_a_at) / RFU FAM174B (11720279_a_at) / Fold change /veh FAM174B (11720279_a_at) / RFU TMPRSS4 (11748680_a_at) / Fold change /veh TMPRSS4 (11748680_a_at) / RFU FAM212B (11763350_a_at) / Fold change /veh FAM212B (11763350_a_at) / RFU PLEKHG5 (11743358_a_at) / Fold change /veh PLEKHG5 (11743358_a_at) / RFU ZSCAN30 (11745921_a_at) / Fold change /veh ZSCAN30 (11745921_a_at) / RFU CMKLR1 (11741424_a_at) / Fold change /veh CMKLR1 (11741424_a_at) / RFU LOC101060620 /// MAPK8IP1 (11723275_at) / Fold change /veh LOC101060620 /// MAPK8IP1 (11723275_at) / RFU SPTSSB (11747773_x_at) / Fold change /veh SPTSSB (11747773_x_at) / RFU PRSS12 (11739890_at) / Fold change /veh PRSS12 (11739890_at) / RFU BIN1 (11741810_x_at) / Fold change /veh BIN1 (11741810_x_at) / RFU WNT11 (11732464_a_at) / Fold change /veh WNT11 (11732464_a_at) / RFU C10orf10 (11716521_a_at) / Fold change /veh C10orf10 (11716521_a_at) / RFU C5orf56 (11738089_at) / Fold change /veh C5orf56 (11738089_at) / RFU CYB561 (11721691_x_at) / Fold change /veh CYB561 (11721691_x_at) / RFU ANKRD19P (11752326_a_at) / Fold change /veh ANKRD19P (11752326_a_at) / RFU OR2T12 /// OR2T33 /// OR2T8 (11738714_s_at) / Fold change /veh OR2T12 /// OR2T33 /// OR2T8 (11738714_s_at) / RFU VCAN (11748164_a_at) / Fold change /veh VCAN (11748164_a_at) / RFU JSRP1 (11732532_at) / Fold change /veh JSRP1 (11732532_at) / RFU KRTAP10-11 (11738290_x_at) / Fold change /veh KRTAP10-11 (11738290_x_at) / RFU MYO3A (11730013_a_at) / Fold change /veh MYO3A (11730013_a_at) / RFU EBF3 (11725865_a_at) / Fold change /veh EBF3 (11725865_a_at) / RFU CAMK2N1 (11719241_x_at) / Fold change /veh CAMK2N1 (11719241_x_at) / RFU C5orf56 (11738088_a_at) / Fold change /veh C5orf56 (11738088_a_at) / RFU OLFML3 (11715873_a_at) / Fold change /veh OLFML3 (11715873_a_at) / RFU LOC100653217 /// NTM (11731650_a_at) / Fold change /veh LOC100653217 /// NTM (11731650_a_at) / RFU MAPK11 (11762145_a_at) / Fold change /veh MAPK11 (11762145_a_at) / RFU FIZ1 (11724087_x_at) / Fold change /veh FIZ1 (11724087_x_at) / RFU OASL (11726364_x_at) / Fold change /veh OASL (11726364_x_at) / RFU SOX15 (11748057_x_at) / Fold change /veh SOX15 (11748057_x_at) / RFU CD79A (11719716_a_at) / Fold change /veh CD79A (11719716_a_at) / RFU HIST1H1D (11736915_at) / Fold change /veh HIST1H1D (11736915_at) / RFU CASKIN2 (11723855_a_at) / Fold change /veh CASKIN2 (11723855_a_at) / RFU LOC730098 (11760151_x_at) / Fold change /veh LOC730098 (11760151_x_at) / RFU OR4N2 (11742367_at) / Fold change /veh OR4N2 (11742367_at) / RFU PRRT2 (11749266_a_at) / Fold change /veh PRRT2 (11749266_a_at) / RFU SNX32 (11753110_a_at) / Fold change /veh SNX32 (11753110_a_at) / RFU CDHR5 (11726645_a_at) / Fold change /veh CDHR5 (11726645_a_at) / RFU RCAN1 (11760418_a_at) / Fold change /veh RCAN1 (11760418_a_at) / RFU FAM167A (11723789_a_at) / Fold change /veh FAM167A (11723789_a_at) / RFU FAM26E (11764081_at) / Fold change /veh FAM26E (11764081_at) / RFU ISYNA1 (11749810_s_at) / Fold change /veh ISYNA1 (11749810_s_at) / RFU ACY1 (11761880_at) / Fold change /veh ACY1 (11761880_at) / RFU 11764098_at / Fold change /veh 11764098_at / RFU SAMD14 (11745864_x_at) / Fold change /veh SAMD14 (11745864_x_at) / RFU NPB (11741838_a_at) / Fold change /veh NPB (11741838_a_at) / RFU TMPRSS6 (11731388_a_at) / Fold change /veh TMPRSS6 (11731388_a_at) / RFU KRTAP10-2 (11738614_at) / Fold change /veh KRTAP10-2 (11738614_at) / RFU ARHGAP8 /// PRR5-ARHGAP8 (11727945_x_at) / Fold change /veh ARHGAP8 /// PRR5-ARHGAP8 (11727945_x_at) / RFU KRTAP5-7 /// NADSYN1 (11734609_at) / Fold change /veh KRTAP5-7 /// NADSYN1 (11734609_at) / RFU RASL12 (11751679_a_at) / Fold change /veh RASL12 (11751679_a_at) / RFU CDKN2B (11736163_a_at) / Fold change /veh CDKN2B (11736163_a_at) / RFU PRF1 (11729649_at) / Fold change /veh PRF1 (11729649_at) / RFU, ZNF638 /// ZNF638-IT1 / Fold change vs veh, ZNF638 /// ZNF638-IT1 / RFU, PANK3 / Fold change vs veh, PANK3 / RFU, SH3YL1 / Fold change vs veh, SH3YL1 / RFU, ZEB2 / Fold change vs veh, ZEB2 / RFU, NRIP1 / Fold change vs veh, NRIP1 / RFU, PTTG1IP / Fold change vs veh, PTTG1IP / RFU, CAPN2 / Fold change vs veh, CAPN2 / RFU, MED14 / Fold change vs veh, MED14 / RFU, SNORA58 / Fold change vs veh, SNORA58 / RFU, C1orf63 / Fold change vs veh, C1orf63 / RFU, LRRFIP1 / Fold change vs veh, LRRFIP1 / RFU, NDUFAF7 / Fold change vs veh, NDUFAF7 / RFU, SLC12A2 / Fold change vs veh, SLC12A2 / RFU, IBTK / Fold change vs veh, IBTK / RFU, ESF1 / Fold change vs veh, ESF1 / Fold change vs veh, TMEM50B / RFU, TAOK1 / Fold change vs veh, TAOK1 / RFU, ACBD3 / Fold change vs veh, ACBD3 / RFU, TMA16 / Fold change vs veh, TMA16 / RFU, RWDD3 / Fold change vs veh, RWDD3 / RFU, BCAT1 / Fold change vs veh, BCAT1 / RFU, EDEM3 / Fold change vs veh, EDEM3 / RFU, TMEM33 / Fold change vs veh, TMEM33 / RFU, WDR75 / Fold change vs veh, WDR75 / RFU, AHCTF1 / Fold change vs veh, AHCTF1 / RFU, TFRC / Fold change vs veh, TFRC / RFU, ZDHHC17 / Fold change vs veh, ZDHHC17 / RFU, NOM1 / Fold change vs veh, NOM1 / RFU, ARL8B / Fold change vs veh, ARL8B / RFU, ZBTB11 / Fold change vs veh, ZBTB11 / RFU, TAMM41 / Fold change vs veh, TAMM41 / RFU, KIAA1704 /// LOC100996395 / Fold change vs veh, KIAA1704 /// LOC100996395 / RFU, ING1 / Fold change vs veh, ING1 / RFU, TRMT61B / Fold change vs veh, TRMT61B / RFU, FUBP3 / Fold change vs veh, FUBP3 / RFU, TP53 / Fold change vs veh, TP53 / RFU, TNKS2 / Fold change vs veh, TNKS2 / RFU, ZFP14 / Fold change vs veh, ZFP14 / RFU, ACTR2 / Fold change vs veh, ACTR2 / RFU, PPP3R1 / Fold change vs veh, PPP3R1 / RFU, PIK3R1 / Fold change vs veh, PIK3R1 / RFU, HNRNPA1 / Fold change vs veh, HNRNPA1 / RFU, RNF170 / Fold change vs veh, RNF170 / RFU, ZNF28 / Fold change vs veh, ZNF28 / RFU, RNGTT / Fold change vs veh, RNGTT / RFU, OGT / Fold change vs veh, OGT / RFU, BRD1 / Fold change vs veh, BRD1 / RFU, MARS / Fold change vs veh, MARS / RFU, ZNF655 / Fold change vs veh, ZNF655 / RFU, FAHD1 / Fold change vs veh, FAHD1 / RFU, BDP1 / Fold change vs veh, BDP1 / RFU, LRRCC1 / Fold change vs veh, LRRCC1 / RFU, ARID1A / Fold change vs veh, ARID1A / RFU, ZNF146 / Fold change vs veh, ZNF146 / RFU, ZNF330 / Fold change vs veh, ZNF330 / RFU, GPN3 / Fold change vs veh, GPN3 / RFU, C9orf123 / Fold change vs veh, C9orf123 / RFU, N4BP2L2 / Fold change vs veh, N4BP2L2 / RFU, ARFIP1 / Fold change vs veh, ARFIP1 / RFU, FAM179B / Fold change vs veh, FAM179B / RFU, BCL10 / Fold change vs veh, BCL10 / RFU, UHRF1BP1L / Fold change vs veh, UHRF1BP1L / RFU, BET1 / Fold change vs veh, BET1 / RFU, CNOT2 / Fold change vs veh, CNOT2 / RFU, ZNF268 / Fold change vs veh, ZNF268 / Fold change vs veh, ZNF507 / RFU, DGCR2 / Fold change vs veh, DGCR2 / RFU, WDSUB1 / Fold change vs veh, WDSUB1 / Fold change vs veh, HSP90B1 /// MIR3652 / RFU, ADSS / Fold change vs veh, ADSS / RFU, GK / Fold change vs veh, GK / RFU, ZNF148 / Fold change vs veh, ZNF148 / RFU, TAF9 / Fold change vs veh, TAF9 / RFU, SLC1A5 / Fold change vs veh, SLC1A5 / RFU, SLMO2 / Fold change vs veh, SLMO2 / RFU, ABCC4 / Fold change vs veh, ABCC4 / RFU, LOC101060439 /// RAP1B / Fold change vs veh, LOC101060439 /// RAP1B / RFU, RFX7 / Fold change vs veh, RFX7 / RFU, GTPBP10 / Fold change vs veh, GTPBP10 / RFU, CNEP1R1 / Fold change vs veh, CNEP1R1 / RFU, BIVM-ERCC5 /// ERCC5 / Fold change vs veh, BIVM-ERCC5 /// ERCC5 / RFU, ILF3 / Fold change vs veh, ILF3 / RFU 11762660_at / Fold change /veh 11762660_at / RFU VCAN (11757783_s_at) / Fold change /veh VCAN (11757783_s_at) / RFU DDX43 (11728927_at) / Fold change /veh DDX43 (11728927_at) / RFU KRT8 (11758188_x_at) / Fold change /veh KRT8 (11758188_x_at) / RFU NKD1 (11759106_at) / Fold change /veh NKD1 (11759106_at) / RFU SRD5A1 (11742802_a_at) / Fold change /veh SRD5A1 (11742802_a_at) / RFU TPSAB1 /// TPSB2 (11721975_s_at) / Fold change /veh TPSAB1 /// TPSB2 (11721975_s_at) / RFU GSTM3 (11746129_a_at) / Fold change /veh GSTM3 (11746129_a_at) / RFU IL23R (11737362_x_at) / Fold change /veh IL23R (11737362_x_at) / RFU TMEM51 (11727254_a_at) / Fold change /veh TMEM51 (11727254_a_at) / RFU PIWIL2 (11732686_x_at) / Fold change /veh PIWIL2 (11732686_x_at) / RFU ORM1 (11744905_x_at) / Fold change /veh ORM1 (11744905_x_at) / RFU CCDC152 (11743942_at) / Fold change /veh CCDC152 (11743942_at) / RFU ECM1 (11717891_a_at) / Fold change /veh ECM1 (11717891_a_at) / RFU IL23R (11748794_a_at) / Fold change /veh IL23R (11748794_a_at) / RFU TNFAIP8L3 (11732012_x_at) / Fold change /veh TNFAIP8L3 (11732012_x_at) / RFU MBOAT4 (11741988_at) / Fold change /veh MBOAT4 (11741988_at) / RFU 11764193_at / Fold change /veh 11764193_at / RFU TMEM53 (11763286_at) / Fold change /veh TMEM53 (11763286_at) / RFU MAGEB2 (11727129_at) / Fold change /veh MAGEB2 (11727129_at) / RFU TMEM200A (11744735_a_at) / Fold change /veh TMEM200A (11744735_a_at) / RFU CCDC152 (11751479_a_at) / Fold change /veh CCDC152 (11751479_a_at) / RFU FAM211A (11726209_a_at) / Fold change /veh FAM211A (11726209_a_at) / RFU RGS16 (11746705_a_at) / Fold change /veh RGS16 (11746705_a_at) / RFU VCAN (11755009_s_at) / Fold change /veh VCAN (11755009_s_at) / RFU RHOB (11743442_s_at) / Fold change /veh RHOB (11743442_s_at) / RFU RGS16 (11720943_a_at) / Fold change /veh RGS16 (11720943_a_at) / RFU RGS16 (11720944_at) / Fold change /veh RGS16 (11720944_at) / RFU, VPS4B / Fold change vs veh, VPS4B / RFU, CREB1 / Fold change vs veh, CREB1 / RFU, DNAJC13 / Fold change vs veh, DNAJC13 / RFU, GNAQ / Fold change vs veh, GNAQ / RFU, CDK5R1 / Fold change vs veh, CDK5R1 / RFU, ZRANB3 / Fold change vs veh, ZRANB3 / RFU, CUL4A / Fold change vs veh, CUL4A / RFU, CCNY / Fold change vs veh, CCNY / RFU, UFL1 / Fold change vs veh, UFL1 / RFU, COG3 / Fold change vs veh, COG3 / RFU, DIAPH2 / Fold change vs veh, DIAPH2 / RFU, SKA2 / Fold change vs veh, SKA2 / RFU, AFF3 / Fold change vs veh, AFF3 / RFU, LMF1 / Fold change vs veh, LMF1 / RFU, IPO11 / Fold change vs veh, IPO11 / RFU, DFFB / Fold change vs veh, DFFB / RFU, FOXP1 / Fold change vs veh, FOXP1 / RFU, CARD8 / Fold change vs veh, CARD8 / RFU, STRN3 / Fold change vs veh, STRN3 / RFU, ADK / Fold change vs veh, ADK / RFU, RASSF2 / Fold change vs veh, RASSF2 / RFU, WIPF1 / Fold change vs veh, WIPF1 / RFU, LARP1B / Fold change vs veh, LARP1B / RFU, RASA1 / Fold change vs veh, RASA1 / RFU, RB1 / Fold change vs veh, RB1 / RFU, PPFIA1 / Fold change vs veh, PPFIA1 / RFU, MAT2A / Fold change vs veh, MAT2A / RFU, CCT5 / Fold change vs veh, CCT5 / RFU, WDR92 / Fold change vs veh, WDR92 / RFU, CUX1 / Fold change vs veh, CUX1 / RFU, TTC7A / Fold change vs veh, TTC7A / RFU, TMEM135 / Fold change vs veh, TMEM135 / RFU, DEPTOR / Fold change vs veh, DEPTOR / RFU, CPM / Fold change vs veh, CPM / RFU, DNAJB6 / Fold change vs veh, DNAJB6 / RFU, CACNA2D3 / Fold change vs veh, CACNA2D3 / RFU, DTX4 / Fold change vs veh, DTX4 / RFU, TFCP2 / Fold change vs veh, TFCP2 / RFU, GMCL1 /// GMCL1P1 / Fold change vs veh, GMCL1 /// GMCL1P1 / RFU, AEBP2 / Fold change vs veh, AEBP2 / RFU, SNHG1 /// SNORD22 /// SNORD25 /// SNORD26 /// SNORD27 /// SNORD28 /// SNORD29 /// SNORD31 / Fold change vs veh, SNHG1 /// SNORD22 /// SNORD25 /// SNORD26 /// SNORD27 /// SNORD28 /// SNORD29 /// SNORD31 / Fold change (Aza/veh), C12orf56 (ProbeSet 11735607_a_at) / Fold change (ACY-1035/veh), C12orf56 (ProbeSet 11735607_a_at) / Fold change (Aza/veh), FGFR1OP (ProbeSet 11751329_s_at) / Fold change (ACY-1035/veh), FGFR1OP (ProbeSet 11751329_s_at) / Fold change (Aza/veh), VPS36 (ProbeSet 11739960_a_at) / Fold change (ACY-1035/veh), VPS36 (ProbeSet 11739960_a_at) / RFU SYPL1 (11715823_x_at) / Fold change /veh SYPL1 (11715823_x_at) / RFU IGFBP7 (11715501_s_at) / Fold change /veh IGFBP7 (11715501_s_at) / RFU REEP3 (11722064_at) / Fold change /veh REEP3 (11722064_at) / RFU IGLL1 (11728026_x_at) / Fold change /veh IGLL1 (11728026_x_at): dose or concentration left out as unconfirmed. Conditions: ProbeSet 11716931_at; LIST B.

For `Nc1ccc(-c2cccs2)cc1NC(=O)c1ccc2c(c1)cc(C1CC1)n2CCN1CCOCC1` [ACY-1035], the “RFU, DGCR2” value came to 215.86 RFU.
